Source: patent US20080311657A1, “Killing Human Lymphoma and Leukemia Cancer Cells and Tcr-Activated Normal Human Cells By Dopamine D1r Agonists” (priority 2005, published 2008)

Experiments:
Assay type in all cases: cell-based
[1] = test system: TCR-activated normal human T-cells; assay: Number of living cells counted by flow cytometry (FACSort) after D1R agonist; details: 10^−5 M, 72 hr
Method: FIGS. 31A and B are graphs showing that A 77636 hydrochloride kills much more TCR-activated (FIG. 31B) than resting normal (FIG. 31A) human T-cells. […] The cells were then transferred to the incubator for 72 hr incubation. At the end of the 72 hr incubation, the number of living cells in each well was evaluated by flow cytometry (the cells were counted by FACsort for a fixed time length of 1 min, in which 100 microliter of each sample was tested).
Non-tissue culture treated 24-well plates (Falcon, Franklin Lakes, N.J.) were coated overnight at 4° C. with anti-CD3 and anti-CD28 monoclonal antibodies (mabs) (BD Pharmingen, San Jose, Calif.); ([…] in PBS). The wells were then washed with PBS, blocked for 1 hour at 37° C. (PBS/1% BSA), and washed again. The freshly purified normal human T-cells were resuspended in their respective fresh media and seeded in the anti-CD3/CD28 coated wells (1×10^6 per well), and the plates were incubated for 72 hours (37° C., humidified incubator, 5% CO2). Then, the cells and their media were collected from each well, transferred into 50 ml tubes, centrifuged (1200 rpm, 10 minutes) and both the TCR-activated cells and their culture media were collected and transferred into clean separate tubes.
(§1) Cell viability was tested afterwards.

[2] = test system: Human Burkitt's B-lymphoma cells (Raji); assay: Cell death by LDH release (CytoTox 96); details: 10^−4M
Method: Human Burkitt's B-lymphoma cells (Raji) were seeded in 96 well plates (0.5 ml per well of 0.5 million cells/ml) and A 77636 hydrochloride was added and diluted 1:00 into the wells, at a fixed starting concentration of 10^−2M, so that the final concentration tested was 10^−4M. The cells were then transferred to an incubator (37° C., humidified incubator, 5% CO2) for 1 min, 10 min, 30 min, 60 min or 120 min incubation.

[3] = test system: Human cutaneous Sezary T-lymphoma cells (HuT-78); assay: Number of living cells counted by flow cytometry (FACSort) after D1R agonist; details: 10^−3M-10^−6M, 3 days
Method: (§2) Human cutaneous Sezary T-lymphoma cells (HUT-78) were seeded in 96 well plates (0.5 ml per well of 0.5 million cells/ml) and A 77636 hydrochloride was added and diluted 1:00 into the wells at starting concentrations of 10^−1M-10^−4M, so that the final concentration range tested was 10^−3M-10^−6M. Afterwards, the microtiter plates were placed in an incubator (37° C., humidified incubator, 5% CO2) for 3 days. Then, the number of living cells was evaluated by flow cytometry (the cells were counted by FACsort for a fixed time length of 1 min, in which 100 microliter of each sample was tested).
as §2, with “68930” for “77636”
as §2, with “SKF 38393 hydrobromide” for “A 77636 hydrochloride”
Cell viability was tested afterwards. […]
Cell survival/death was evaluated 3 days later by counting the number of living cells, using flow cytometry.

[4] = test system: Human Burkitt's B-cell lymphoma (Raji) cells; assay: as above; details: 10^−3M-10^−6M, 3 days
Method: Afterwards, the microtiter plates were placed in an incubator (37° C., humidified incubator, 5% CO2) for 3 days. Then, the number of living cells was evaluated by flow cytometry (the cells were counted by FACsort for a fixed time length of 1 min, in which 100 microliter of each sample was tested).
as §1

SMILES: Cl.NC[C@@H]1O[C@H](C23CC4CC(CC(C4)C2)C3)Cc2c1ccc(O)c2O [A 77636 hydrochloride, (1R-cis)-1-(aminomethyl)-3,4-dihydro-3-tricyclo[3.3.1.13,7]dec-1-yl-[1H]-2-benzopyran-5,6-diol hydrochloride]
- % of cells killed [1]: 46%
- Killing of TCR-activated relative to resting normal human T-cells [1]: 3.8 fold
- Exposure time at which extent of cell death reaches a plateau ([2]; LDH release): 1 h
- Elevation in the release of LDH ([2]; exposure for 1 minute): ≈ 3 fold
- Speed of cell death by LDH release (FIG. 28), in words ([2]; 1, 10, 30, 60 or 120 min): very rapid death
- Cell death by number of living cells (FIGS. 13-15), in words [3]: induces marked cell death
- Cell death by number of living cells (FIGS. 19-21), in words [4]: induces marked cell death
